Key:
[1] = biological target: T1, 13762 MAT cell heparanase (Rattus norvegicus, UniProt Q71RP1); test: Gel filtration analysis of substrate degradation by rat 13762 MAT cell homogenate; format: biochemical; conditions: for heparanase activity towards the substrate: incubation for 16 h at pH 5.1, 6.5 or 7.5; for apparent Mr of degradation fragments: with NAM
T1 construct: A time course incubation of 13762 MAT cell homogenates with HS at pH 5.1; endogenous in cells; host or cells: rat mammary adenocarcinoma 13762 MAT cells (Triton X-100 freeze/thaw homogenate)
T1 sequence (Q71RP1 29-536): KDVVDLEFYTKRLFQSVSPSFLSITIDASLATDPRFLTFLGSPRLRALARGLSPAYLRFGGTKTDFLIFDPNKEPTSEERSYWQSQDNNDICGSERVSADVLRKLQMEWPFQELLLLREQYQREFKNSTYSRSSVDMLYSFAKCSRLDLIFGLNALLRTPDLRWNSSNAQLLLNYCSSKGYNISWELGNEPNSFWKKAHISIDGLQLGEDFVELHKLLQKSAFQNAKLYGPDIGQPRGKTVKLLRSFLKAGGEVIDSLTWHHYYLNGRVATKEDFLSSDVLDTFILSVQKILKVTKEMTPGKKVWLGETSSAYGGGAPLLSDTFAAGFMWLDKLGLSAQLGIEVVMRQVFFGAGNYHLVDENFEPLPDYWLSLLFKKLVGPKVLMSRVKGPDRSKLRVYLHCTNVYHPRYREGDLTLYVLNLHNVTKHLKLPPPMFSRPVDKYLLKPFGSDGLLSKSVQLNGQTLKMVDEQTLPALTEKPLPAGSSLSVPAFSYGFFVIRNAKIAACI
Experimental: To assay for heparanase activity, up to 2 μl of sample was added to an […], containing 5 mM-N-acetylmannosamine and 0.1 mg/ml BSA in a total volume of 20 μl and incubated at 37° C. for the appropriate time. The reaction was stopped by freezing the tubes, 0.3 ml cold PBS added, the solution centrifuged if necessary at 4° C. and 0.1 ml of the sample applied to a cHRG-Sepharose mini-column pre-equilibrated in PBS. The columns were washed with 0.7 ml PBS, the washings and flow through material transferred to a scintillation vial, 10 ml of scintillation fluid added, and the radioactivity determined. Enzyme activity was expressed as pmol product formed per hour per mg protein or 10^6 cells or ml of serum. The cHRG-Sepharose columns were regenerated by the addition of 1 ml of 0.05M-Tris-HCl buffer, pH 7.5, containing 2M-NaCl and then equilibrated with PBS.
Heparanase activity was also detected by gel filtration chromatography of the incubation mixture on a Superose 6 HR 10/30 column (Pharmacia LKB Biotechnology, Uppsala, Sweden), equilibrated in and subsequently developed in PBS. The Pharmacia FPLC system was run at a flow rate of 0.25 ml/min with 0.5 ml fractions collected directly into scintillation vials, to which 3 ml of scintillation fluid was added, and the radioactivity determined. The column was calibrated with ^3H-N-acetylglucosamine (221 Da), bovine lung heparin (12.5 kDa) and heparin-derived Mr ave. standards (16.7, 10.6, 6.7 and 3.1 kDa) which had been partially de-N-acetylated and re-N-acetylated with ^3H-acetic anhydride as described above for the preparation of radiolabelled HS. Radiolabelled chondroitin-6-sulphate and carboxyl-reduced HS (prepared by the method of Karamanos et al, (1988)) were also prepared by the above method.

[2] = biological target: T2, Human platelet homogenate heparanase activity (Homo sapiens, UniProt Q9Y251); test: Substrate degradation by human platelet homogenate heparanase activity; format: biochemical
T2 construct: assessed using the highly invasive rat mammary adenocarcinoma 13762 MAT and human platelet homogenates; from tissue; host or cells: human platelets (Triton X-100 freeze/thaw homogenate)
T2 sequence (Q9Y251 36-543): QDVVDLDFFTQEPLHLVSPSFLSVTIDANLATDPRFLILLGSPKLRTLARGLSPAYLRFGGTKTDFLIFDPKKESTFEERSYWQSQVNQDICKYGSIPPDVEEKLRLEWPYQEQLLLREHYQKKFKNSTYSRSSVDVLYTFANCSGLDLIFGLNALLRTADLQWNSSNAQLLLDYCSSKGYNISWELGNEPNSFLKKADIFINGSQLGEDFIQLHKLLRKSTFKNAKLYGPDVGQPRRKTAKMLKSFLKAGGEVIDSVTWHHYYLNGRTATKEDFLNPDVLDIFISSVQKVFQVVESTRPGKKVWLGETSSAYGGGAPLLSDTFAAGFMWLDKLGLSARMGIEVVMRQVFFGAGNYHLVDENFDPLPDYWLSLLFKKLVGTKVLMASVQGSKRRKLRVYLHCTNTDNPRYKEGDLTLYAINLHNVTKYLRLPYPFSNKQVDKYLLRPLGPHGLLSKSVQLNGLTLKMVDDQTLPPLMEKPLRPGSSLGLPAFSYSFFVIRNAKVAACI
Experimental: To assay for heparanase activity, up to 2 μl of sample was added to an incubation mixture consisting of 90 pmol of radiolabelled HS in 0.05M-sodium acetate buffer, pH 5.1, containing 5 mM-N-acetylmannosamine and 0.1 mg/ml BSA in a total volume of 20 μl and incubated at 37° C. for the appropriate time. The reaction was stopped by freezing the tubes, 0.3 ml cold PBS added, the solution centrifuged if necessary at 4° C. and 0.1 ml of the sample applied to a cHRG-Sepharose mini-column pre-equilibrated in PBS. The columns were washed with 0.7 ml PBS, the washings and flow through material transferred to a scintillation vial, 10 ml of scintillation fluid added, and the radioactivity determined. Enzyme activity was expressed as pmol product formed per hour per mg protein or 10^6 cells or ml of serum. The cHRG-Sepharose columns were regenerated by the addition of 1 ml of 0.05M-Tris-HCl buffer, pH 7.5, containing 2M-NaCl and then equilibrated with PBS.
Heparanase activity was also detected by gel filtration chromatography of the incubation mixture on a Superose 6 HR 10/30 column (Pharmacia LKB Biotechnology, Uppsala, Sweden), equilibrated in and subsequently developed in PBS. The Pharmacia FPLC system was run at a flow rate of 0.25 ml/min with 0.5 ml fractions collected directly into scintillation vials, to which 3 ml of scintillation fluid was added, and the radioactivity determined. […]

[3] = test system: cHRG-Sepharose; test: Binding of HS to cHRG-Sepharose, NaCl gradient elution; set-up: species or system chicken; conditions: salt gradient at pH 7.2
Experimental: Binding of HS to cHRG-Sepharose; Samples in 200 μl of PBS were applied to a mini-column (0.5×4.0 cm) of cHRG-Sepharose equilibrated in PBS at 4° C. The column was washed with 2 ml of PBS and eluted with a linear gradient (2×10 mls) of PBS and 10 mM-sodium phosphate buffer, pH7.2, containing 1.2M-NaCl developed at 0.5 ml/min with 0.5 ml fractions collected directly into scintillation vials, to which 4 ml of scintillation fluid was added and the radioactivity determined. The columns were re-equilibrated in PBS for further use.

[4] = biological target: T3, human platelet heparanase (Homo sapiens, UniProt Q9Y251); test: Heparanase assay 2: gel filtration analysis of HS or heparin degradation by purified human platelet heparanase; format: biochemical; conditions: 16 h at 37° C.
T3 construct: human platelet heparanase has been purified to homogeneity from previously frozen, washed platelets; from tissue; host or cells: human platelets (frozen, washed; five-column purification)
T3 sequence (Q9Y251 158-543 limits assumed): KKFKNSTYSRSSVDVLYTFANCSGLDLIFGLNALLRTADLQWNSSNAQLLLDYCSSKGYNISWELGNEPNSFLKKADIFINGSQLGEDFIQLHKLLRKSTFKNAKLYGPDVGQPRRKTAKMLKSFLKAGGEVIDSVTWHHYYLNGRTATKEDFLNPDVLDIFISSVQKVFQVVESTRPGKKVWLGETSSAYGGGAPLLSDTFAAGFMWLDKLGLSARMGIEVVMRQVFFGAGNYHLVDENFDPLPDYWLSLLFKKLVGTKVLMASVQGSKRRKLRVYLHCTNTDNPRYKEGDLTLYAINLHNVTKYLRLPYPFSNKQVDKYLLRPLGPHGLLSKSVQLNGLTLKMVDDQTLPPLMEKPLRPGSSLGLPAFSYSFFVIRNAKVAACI
T3 sequence (Q9Y251 36-109 limits assumed): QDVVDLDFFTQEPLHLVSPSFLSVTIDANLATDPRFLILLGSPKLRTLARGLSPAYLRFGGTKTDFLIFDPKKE
Experimental: Heparanase activity towards 2 μg of the radiolabelled HS or heparin analogues was assayed as described above for 16 h at 37° C., and detected by gel filtration analysis of the incubation mixture on either Superose 6 (for HS degradation) or Superose 12 (for heparin degradation). The chromatography columns were both equilibrated in and developed with PBS at a flow rate of 0.25 ml/min with 0.5 ml fractions being collected directly into scintillation vials, to which 3 ml of scintillation fluid was added, and the radioactivity determined. The columns were calibrated with ^3H-N-acetylglucosamine (221 Da), bovine lung heparin (12.5 kDa) and heparin-derived Mrave. standards (16.7, 10.6, 6.7 and 3.1 kDa) which had been partially de-N-acetylated and re-N-acetylated with ^3H-acetic anhydride as described above for the preparation of radiolabelled HS.

[5] = Storage stability; format: physicochemical; conditions: stored at −20° C. in 10% (v:v) aqueous ethanol, repeated freezing and thawing

| Substance | heparanase activity towards the substrate [1] | heparanase activity towards the substrate [2] | NaCl concentration eluting from cHRG-Sepharose [3] | apparent Mr of degradation fragments ([1]; pH 5.1, 16 h at 37° C.) | apparent Mr of degradation fragments ([1]; pH 6.5, 16 h at 37° C.) | apparent Mr of degradation fragments ([1]; pH 7.5, 16 h at 37° C.) | size of digestion fragments [2] | size of fragments after cleavage [4] | storage stability [5] |
| --- | --- | --- | --- | --- | --- | --- | --- | --- | --- |
| carboxyl-reduced heparan sulphate [CR-HS] | No activity was detected | did not act | – | – | – | – | – | – | – |
| chondroitin-6-sulphate [chrondroitin-6-sulphate] | No activity was detected | – | – | – | – | – | – | – | – |
| heparan sulphate [HS] | – | – | 0.27 M-NaCl | 5 kDa | 8 kDa | 16 kDa | 5 kDa | 5 kDa | stable for over a year |
